Data as given in patent US20150272939A1, “Identification of Small Molecule Inhibitors of Jumonji AT-Rich Interactive Domain 1A (JARID1A) and 1B (JARID1B) Histone Demethylase” (Yale University, priority 2012, published 2015).
Counter-ions that a name gives are not always drawn. Like-named read-outs stand apart in the source and are kept apart here.

Assays:
[1] = AlphaScreen counterscreen against bio-H3K4me2 peptide in the absence of enzyme (artifact signal); conditions: for Artifact signal: effect of the compound when it is incubated with bio-H3K4me2 peptide: counterscreen, no enzyme; for Artifact Signal (percent): effect of the compound when incubated with bio-H3K4me2 peptide (counterscreen, no enzyme);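 for all read-outs here: counterscreen run without enzyme against bio-H3K4me2 peptide to remove false positive hits from the JARID1 demethylase AlphaScreen screen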
[2] = biological target: T1, JARID1B (Homo sapiens, UniProt Q9UGL1); assay: FLAG-JARID1B histone demethylase assay with AlphaScreen detection (HTS and dose response); assay type: biochemical; conditions: for inhibition at 20 µM / Inhibitory effect (percent): high-throughput screen, compound 20 μM; for inhibition at 20 µM: read-out: Inhibitory effect (percent); for Validation result of HTS active: effect of the compound in the JARID1B AlphaScreen demethylase assay / Assay Signal (percent): validation of HTS actives; for Validation result of HTS active: effect of the compound in the JARID1B AlphaScreen demethylase assay: total signal before subtraction of artifact signal; for Assay − Artifact Signal (percent): assay signal minus artifact signal; for Assay Signal (percent): effect of compound in JARID1B AlphaScreen assay;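 for Assay Signal (percent): compound tested at 20 µM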;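 for Assay − Artifact Signal (percent): compound tested at 20 µM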;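 for all read-outs here: FLAG-tagged JARID1B at 4 nM acting on a biotinylated H3K4me3 peptide, demethylation read by AlphaScreen luminescence, with hits checked against bio-H3K4me2 without enzyme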
T1 construct: The FLAG tagged full length JARID1B enzyme was expressed in Sf21 insect cells using FLAG-JARID1B baculoviruses; FLAG (N); made in house; host or cells: Sf21 insect cells (baculovirus)

[3] = standard demethylase conditions (10 μM α-KG, 50 μM Fe (II))
[4] = IDs marked *: additional hits under reaction condition with 1 mM α-KG

T1 sequence (Q9UGL1 whole entry): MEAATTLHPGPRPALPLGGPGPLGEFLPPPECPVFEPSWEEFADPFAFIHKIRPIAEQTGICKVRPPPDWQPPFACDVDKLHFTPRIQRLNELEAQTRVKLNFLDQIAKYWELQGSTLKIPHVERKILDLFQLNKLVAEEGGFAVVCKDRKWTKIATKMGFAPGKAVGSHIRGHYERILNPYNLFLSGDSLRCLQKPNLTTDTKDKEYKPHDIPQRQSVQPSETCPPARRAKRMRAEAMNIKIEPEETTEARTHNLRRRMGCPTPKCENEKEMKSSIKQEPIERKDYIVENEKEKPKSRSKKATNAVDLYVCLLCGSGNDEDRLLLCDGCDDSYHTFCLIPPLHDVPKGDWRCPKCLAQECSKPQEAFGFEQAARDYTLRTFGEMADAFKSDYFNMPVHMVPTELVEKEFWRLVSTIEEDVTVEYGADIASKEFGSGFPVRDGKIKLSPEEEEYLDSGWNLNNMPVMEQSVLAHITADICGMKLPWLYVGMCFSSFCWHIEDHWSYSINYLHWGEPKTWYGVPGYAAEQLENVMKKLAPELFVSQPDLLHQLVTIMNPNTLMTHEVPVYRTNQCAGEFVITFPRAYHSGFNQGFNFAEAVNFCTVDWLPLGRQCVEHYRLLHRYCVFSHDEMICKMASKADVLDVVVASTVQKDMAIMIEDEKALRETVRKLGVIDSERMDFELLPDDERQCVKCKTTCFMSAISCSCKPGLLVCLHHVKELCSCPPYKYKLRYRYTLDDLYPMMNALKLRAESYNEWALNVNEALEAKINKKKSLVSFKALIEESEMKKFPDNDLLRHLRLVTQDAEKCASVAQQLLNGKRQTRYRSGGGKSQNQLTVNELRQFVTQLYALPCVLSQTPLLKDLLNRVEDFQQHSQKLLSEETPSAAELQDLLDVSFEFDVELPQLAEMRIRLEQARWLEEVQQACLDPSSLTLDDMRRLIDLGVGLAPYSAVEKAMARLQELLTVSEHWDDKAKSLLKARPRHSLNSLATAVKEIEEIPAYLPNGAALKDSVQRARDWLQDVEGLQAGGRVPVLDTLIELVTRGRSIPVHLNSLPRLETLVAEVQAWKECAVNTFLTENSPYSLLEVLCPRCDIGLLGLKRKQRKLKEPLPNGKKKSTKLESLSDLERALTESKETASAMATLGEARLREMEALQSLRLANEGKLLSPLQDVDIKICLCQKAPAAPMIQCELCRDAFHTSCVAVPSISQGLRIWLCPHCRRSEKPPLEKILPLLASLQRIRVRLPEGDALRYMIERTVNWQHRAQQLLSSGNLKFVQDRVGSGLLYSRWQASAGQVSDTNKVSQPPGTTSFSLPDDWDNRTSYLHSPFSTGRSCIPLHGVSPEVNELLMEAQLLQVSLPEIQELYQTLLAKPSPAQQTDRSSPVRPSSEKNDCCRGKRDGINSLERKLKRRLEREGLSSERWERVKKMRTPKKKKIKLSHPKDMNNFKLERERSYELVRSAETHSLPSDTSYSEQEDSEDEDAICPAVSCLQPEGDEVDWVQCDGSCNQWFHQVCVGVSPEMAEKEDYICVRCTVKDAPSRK

Row | Compound | Artifact signal: effect of the compound when it is incubated with bio-H3K4me2 peptide [1] | inhibition at 20 µM [2, 3] [%] | Validation result of HTS active: effect of the compound in the JARID1B AlphaScreen demethylase assay [2] | Artifact Signal (percent) [1] [%] | Assay − Artifact Signal (percent) [2] [%] | Assay Signal (percent) [2] [%] | inhibition at 20 µM [2, 4] [%] | Inhibitory effect (percent) [2, 3] [%] | Inhibitory effect (percent) ([2]; standard demethylase conditions (10 μM α-KG, 50 μM Fe (II)), HYDROCHLORIDE) [%]
1 | O=C(NCc1ccccn1)c1ccc(NC(=O)c2ccco2)cc1 [YU152560] | −6.86 | 41.5 | −1.53 |  |  |  |  |  | 
2 | Cc1nnc(S)n1NCc1ccc2c(c1)OCO2 [YU147191] |  | 31.5 |  | 1.94 | 43.11 | 45.05 |  |  | 
3 | COC(=O)c1cc(Br)c(OCc2ccccc2)c(CO[Si](C(C)(C)C)(C(C)(C)C)C(C)(C)C)c1OCc1ccccc1 [YU221143] |  | 40.9 |  | −3.99 | 26.59 | 22.60 |  |  | 
4 | CC(=O)Oc1c([N+](=O)[O-])cc2c(c1Br)CCCC2 [YU151714] |  | 32.3 |  | 1.24 | 12.20 | 13.44 |  |  | 
5 | CC(=O)C(C)O[Si](C(C)C)(C(C)C)C(C)C (stereo not shown) [YU035082] |  |  |  | 6.78 | 15.58 | 22.36 | 95.8 |  | 
6 | C#CCOc1c(Cl)cc(C(=S)N2CCOCC2)cc1OC [YU153110] |  | 45.2 |  | −3.09 | 37.96 | 34.87 |  |  | 
7 | N#Cc1c(NC(=O)c2cnn3cccnc23)sc2c1CCCC2 [YU152893] | 1.62 | 84.5 | 9.21 |  |  |  |  |  | 
8 | BACITRACIN [YU033699, reference compound] | −1.65 |  | 6.01 |  |  |  |  | 74.07 | 
9 | NC[C@H](O)c1ccc(O)c(O)c1 [YU033927, NOREPINEPHRINE, reference compound] |  | 58.5 |  | 1.83 | 37.97 | 39.80 |  |  | 
10 | CCCCC(=O)Nc1ccc(N(C)CCc2c(C)nn(C)c2C)c(C(=O)O)c1 [YU208232] |  | 50.5 |  | 18.67 | 19.26 | 37.92 |  |  | 
11 | CCOC(=O)C(CCOc1cccc(CC)c1)C(=O)OCC [YU151071] |  | 96.7 |  | −3.73 | 9.86 | 6.13 |  |  | 
12 | O=C1C=C2CC3(O)COc4c(ccc(O)c4O)C3=C2C=C1O (stereo not shown) [YU155257, HEMATEIN, reference compound] | 99.07 | 105 | 104.73 |  |  |  |  |  | 
13 | CCCSc1nc2c3c(sc2c(=O)[nH]1)CC(C)(CC)OC3 (stereo not shown) [YU153031] |  | 97 |  | 0.09 | 9.19 | 9.27 |  |  | 
14 | C=C1c2cccc(O)c2C(=O)C2=C(O)[C@]3(O)C(=O)C(C(N)=O)=C(O)[C@@H](N(C)C)[C@@H]3[C@@H](O)[C@H]12 [YU034167, METHACYCLINE HYDROCHLORIDE, reference compound] | 56.96 | 51.5 | 62.51 |  |  |  |  |  | 
15 | CCCCOc1ccc(NC(=O)CSc2nnnn2C)cc1 [YU152624] | −4.45 | 37.7 | −1.90 |  |  |  |  |  | 
16 | CC(O)Cc1nnc(S)n1-c1ccccc1 (stereo not shown) [YU145796] |  | 34.8 |  | −7.79 | 40.83 | 33.04 |  |  | 
17 | Cn1cc(C2=C(c3cn(CCCSC(=N)N)c4ccccc34)C(=O)NC2=O)c2ccccc21 [YU154853, Ro 31-8220, reference compound] | 38.79 | 44 | 41.07 |  |  |  |  |  | 
18 | O=C(O)c1ccnc(C(=O)O)c1 [YU221215, 2,4-Pyridinedicarboxylic Acid, reference compound] |  |  |  | 3.00 | 96.69 | 99.69 | 40.8 |  | 

Row | Compound | Artifact signal: effect of the compound when it is incubated with bio-H3K4me2 peptide [1] | inhibition at 20 µM [2, 3] [%] | Validation result of HTS active: effect of the compound in the JARID1B AlphaScreen demethylase assay [2] | Artifact Signal (percent) [1] [%] | Assay − Artifact Signal (percent) [2] [%] | Assay Signal (percent) [2] [%] | inhibition at 20 µM [2, 4] [%] | Inhibitory effect (percent) [2, 3] [%] | Inhibitory effect (percent) ([2]; standard demethylase conditions (10 μM α-KG, 50 μM Fe (II)), HYDROCHLORIDE) [%]
19 | O=C(NCCc1ccc(F)cc1)C(Cl)(Cl)Cl [YU148680] | −10.90 | 63.9 | −2.95 |  |  |  |  |  | 
20 | Oc1c(C(Nc2ccccc2Cl)c2cccnc2)ccc2cccnc12 (stereo not shown) [YU172164] |  | 56 |  | 36.24 | 11.14 | 47.38 |  |  | 
21 | O=C(O[C@@H]1Cc2c(O)cc(O)cc2O[C@@H]1c1cc(O)c(=O)c2c(O)c(O)cc([C@H]3Oc4cc(O)cc(O)c4C[C@H]3O)c2c1)c1cc(O)c(O)c(O)c1 [YU155347, THEAFLAVIN MONOGALLATES, reference compound] | 95.69 | 104 | 103.69 |  |  |  |  |  | 
22 | NCCc1ccc(O)c(O)c1 [YU033802, DOPAMINE HYDROCHLORIDE, reference compound] | −2.83 | 51.3 | −1.42 | 10.00 | 32.68 | 42.68 |  |  | 46.86
23 | C=CCOc1c(Cl)cc(C=C[N+](=O)[O-])cc1OCC (single isomer, unassigned) [YU148636] |  | 34.7 |  | −0.47 | 11.11 | 10.64 |  |  | 
24 | N#CC(=Cc1cc(O)c(O)c(O)c1)C(N)=C(C#N)C#N (single isomer, unassigned) [YU154835, TYRPHOSTIN 51, reference compound] |  | 69.7 |  | 23.01 | 23.04 | 46.05 |  |  | 
25 | C[C@](N)(Cc1ccc(O)c(O)c1)C(=O)O [YU033903, METHYLDOPA, reference compound] |  | 69.1 |  | −0.54 | 30.75 | 50.21 |  |  | 
26 | O=C(Cn1c(=O)oc2ccccc21)Nc1cccc([N+](=O)[O-])c1 [YU151591] |  | 35 |  | 1.65 | 14.61 | 16.26 |  |  | 
27 | CCCCC(CC)CNC(=N)NC(=N)NCCCCCCNC(=N)NC(=N)NCC(CC)CCCC (stereo not shown) [YU034347, ALEXIDINE HYDROCHLORIDE, reference compound] |  | 80.6 |  | 5.60 | 66.40 | 72.00 |  |  | 
28 | O=c1c(O[C@@H]2O[C@H](CO)[C@@H](O)[C@H](O)[C@H]2O)c(-c2ccc(O)c(O)c2)oc2cc(O)cc(O)c12 [YU221011, Isoquercitrin, reference compound] |  | 45.1 |  | 15.17 | 36.99 | 52.16 |  |  | 
29 | c1cc(CNc2ccc(N3CCOCC3)cc2)ccn1 [YU129874] |  | 74.5 |  | 4.18 | 67.88 | 72.06 |  |  | 
30 | O=C(O[C@@H]1Cc2c(O)cc(O)cc2O[C@@H]1c1cc(O)c(O)c(O)c1)c1cc(O)c(O)c(O)c1 [YU040338, Epigallocatechin gallate, reference compound] |  | 100 |  | 80.56 | 15.48 | 96.04 |  |  | 
31 | C=CCNCCCCOc1cccc(OCC)c1 [YU146294] |  | 36.5 |  | 5.94 | 8.13 | 14.08 |  |  | 
32 | CC(NC(=S)Nc1ccc2c(c1)OCO2)c1ccncc1 (stereo not shown) [YU150371] |  | 31.8 |  | −1.93 | 8.09 | 6.16 |  |  | 
33 | CNC[C@H](O)c1ccc(O)c(O)c1 [YU033809, ADRENALINE BITARTRATE, reference compound] |  | 56.3 |  | −6.64 | 47.54 | 40.90 |  |  | 
34 | Cc1ccc(C)n1NC(=O)c1ccc(O)cc1 [YU145520] | 1.80 | 36.9 | 3.79 |  |  |  |  |  | 
35 | COc1ccc(C2CC(c3cccnc3)Nc3nnnn32)cc1 (stereo not shown) [YU151128] |  | 59.7 |  | −2.19 | 8.40 | 6.20 |  |  | 
